{"source": "patent US11312687B2", "about": "“7H-azulene [1,2,3-i,j] isoquinolin-7-one compound, single crystal and use thereof” (Hunan University of Chinese Medicine, priority 2017, dated 2022)", "system": "PC12 cells damaged by Aβ25-35", "test": "Protective effect on PC12 cells damaged by Aβ25-35 (MTT cell viability)", "type": "cell-based, rat", "text": "Protective effect of 6-hydroxy-5,8-dimethoxy-7H-azulene [1,2,3-i,j] isoquinolin-7-one on PC12 cells damaged by Aβ25-35: cell seeding in the 96-well plate was the same as above, and the experiment was divided into 5 groups, 4 holes in each group.", "note": "Where two headings read alike, the source gives them in different places."}
{"compound": "COc1cc2ccnc3c2c(c1O)-c1c-3cccc(OC)c1=O", "note": "[6-hydroxy-5,8-dimethoxy-7H-azulene [1,2,3-i,j] isoquinolin-7-one]", "values": [{"measurement": "viability at 0.5 µg/mL", "setting": "Rattus norvegicus, PC-12, 0.5 ug·mL^-1 sample, 30 μmol/L Aβ25-35, 24 h, MTT, x ± s, n = 4", "result": "85.8 ± 1.6", "unit": "%"}, {"measurement": "viability at 1 µg/mL", "setting": "Rattus norvegicus, PC-12, 1.0 ug·mL^-1 sample, 30 μmol/L Aβ25-35, 24 h, MTT, x ± s, n = 4, read-out: cell viability (%)", "result": "103 ± 1.8", "unit": "%"}, {"measurement": "viability at 5 µg/mL", "setting": "Rattus norvegicus, PC-12, 5.0 ug·mL^-1 sample, 30 μmol/L Aβ25-35, 24 h, MTT, x ± s, n = 4", "result": "77.4 ± 3.8", "unit": "%"}, {"measurement": "viability at 1 µg/mL", "setting": "Rattus norvegicus, PC-12, concentration of 1.0 μg·mL^-1, 30 μmol/L Aβ25-35, read-out: viability of PC12 damaged cells", "result": "> 95", "unit": "%"}, {"measurement": "cell viability compared to model group", "setting": "three different concentrations (0.5, 1.0, 5.0 μg·mL^-1), P<0.01 vs model group", "result": "significantly increased cell viability"}]}
